This assay has as its target RORγ (Homo sapiens (Human), UniProt P51449). The experiment in a line: Reporter Gene Assay (RGA): inhibition of RORγ transactivation of a luciferase reporter. Format: cell-based. To be noted: transiently transfected HEK 293 cells (Gal4DBD hRORC LBD), 20-24 h incubation. On the technique in general: A reporter such as luciferase makes a cellular process visible.
Sequence of RORγ (P51449 269-508): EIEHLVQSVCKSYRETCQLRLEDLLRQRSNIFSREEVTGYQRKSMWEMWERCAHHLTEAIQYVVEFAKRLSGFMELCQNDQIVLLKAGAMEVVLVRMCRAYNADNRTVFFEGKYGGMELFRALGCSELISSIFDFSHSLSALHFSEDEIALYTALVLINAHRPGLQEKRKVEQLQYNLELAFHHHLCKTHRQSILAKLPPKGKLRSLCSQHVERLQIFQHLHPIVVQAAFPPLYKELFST
Turning to `CNS(=O)(=O)c1ccc(CNc2nc3cnc(-c4c(C)ncnc4C4CC4)nc3n([C@@H](C)C3CC3)c2=O)cc1` [Example 134], the IC50 came out at 400 nM. This lies in the sub-micromolar range.

Turning to `CCS(=O)(=O)c1ccc(CNc2nc3cnc(-c4c(OC)ncnc4C4CC4)nc3n(C(C)C)c2=O)cc1` [Example 143], the IC50 amounted to 134 nM. To `CCS(=O)(=O)c1ccc(CNc2nc3cnc(-c4c(C)ncnc4C4CC4)nc3n([C@@H]3C[C@H]4CC[C@@H]3C4)c2=O)nc1` [Example 220] belongs 390 nM.

Usually IC50 stands for the concentration needed to halve the response being measured. A lower IC50 goes with higher potency.

For the origin of these results see US9598415B2, “Compounds as modulators of RORγ” (Boehringer Ingelheim International GmbH, priority 2014, dated 2017).
